pIC50: −log10 of the molar value. Like-named read-outs stand apart in the source and are kept apart here.
How the values were obtained:
[1] = system: HL-60 cells; assay: Cell cycle analysis by flow cytometry (propidium iodide); format: cell-based, human; conditions: 48 h; CYT=1 μM; DAU=0.04 μM; GDC=1 μM; JSK=0.5 μM
Method: HL-60 cells (2×10^5 cells/mL) were seeded in 6-well plates, and treated with drug alone or different combinations of two drugs at the following concentrations for each: […] JSK=0.5 μM. Following 48-h treatment, cells were harvested, fixed and stained with propidium iodide (PI) at room temperature in the dark. Cell cycle analysis was performed by flow cytometry using BD LSR Fortessa machine (BD Biosciences, San Jose, Calif.). Cell percentages in the different phases of cell cycle were analyzed using FlowJo software (Tree star, Ashland, Oreg.).

[2] = 37 °C, after 48 h, 100 μg CYT/mL
Method: The stability of free and HPMA copolymer-bound cytarabine in human plasma was evaluated. […] At selected time points, 5 μL tetrahydrouridine (THU, 1 mg/mL in DI H2O, used as inhibitor of cytidine deaminase to prevent cytarabine from deamination) was added to a vial containing 100 μL sample. For free drug, 1 mL of mixture of acetonitrile/methanol (9:1) was added to precipitate proteins. The vial was vortex-mixed and then centrifuged at 13,000 g for 10 min at 4° C. The supernatant was carefully transferred into a 2 mL vial that was placed into a 40° C. water bath and bubbled with nitrogen. After organic solvents were removed, the resulting dry residue was dissolved in 0.5 mL DI H2O with 0.1% TFA. The sample was filtered and then 10 μL was injected to an analytical C18 column (Zorbax 300SB, 5 μm, 4.6×250 mm) for HPLC analysis. The amount of intact CYT was calculated based on the area under the curve (AUC) recorded at 268 nm wavelength and calibration curve from a series of standard CYT concentrations. To determine the CYT stability in conjugate, 1-amino-2-propanol (10 μL) was added to the sample prior to plasma precipitation in order to cleave CYT from polymer backbone. Then the sample was examined following the same procedure as described above.

[3] = system: HL-60 human AML cells; assay: In vitro cytotoxicity (CCK-8 assay); format: cell-based
Method: The cytotoxicity of free drugs (CYT, DAU, GDC, and JSK) and two polymeric conjugates (P-CYT, P-GDC) against HL-60 was measured using the CCK-8 assay (Dojindo, Kumamoto, Japan). The cells were seeded in 96-well plates at a density of 20,000 cells/well in RPMI-1640 media containing 2 mM L-glutamine and 10% FBS. Then, 50 μL media containing the drugs were added. The cells were incubated with free drugs (CYT, DAU, GDC, and JSK) or the polymeric conjugates (P-CYT, P-GDC) at a range of drug concentrations. After 48 h incubation, the number of viable cells was estimated using the CCK-8 kit according to manufacturer's protocol. After the cells were incubated with the reagent at 37° C. for 4 h, the absorbance was measured using a microplate reader at 450 nm (630 nm as reference). Viability of treated cells was calculated as a percentage of the viability of untreated controls.

[4] = system: DOX resistant (A2780/AD) human ovarian carcinoma xenografts; conditions: resistant tumors (A2780/AD); cited from earlier work
[5] = humans; P-DOX in DOX equivalent; cited from earlier work
[6] = cited from earlier work
[7] = Homo sapiens, HL-60 cells, 48 h incubation, read-out: IC50

## Nc1ccn([C@@H]2O[C@H](CO)[C@@H](O)[C@@H]2O)c(=O)n1 [CYT, cytarabine]
[1]
  Change of G0/G1 phase population: decrease in the G0/G1 population
  Change of S phase population: arrested the cells in S phase
[2]
  CYT still present in human plasma: all free drug disappeared
[3]; [7]
  pIC50: 5.98

## COc1cccc2c1C(=O)c1c(O)c3c(c(O)c1C2=O)C[C@@](O)(C(C)=O)C[C@@H]3O[C@H]1C[C@H](N)[C@H](O)[C@H](C)O1 [DAU, daunorubicin]
[1]
  Change of G0/G1 phase population: decrease in the G0/G1 population
  Change of G2/M phase population: accumulate in the G2/M phase
[3]; Homo sapiens, HL-60, 48 h
  pIC50: 7.40

## COc1cccc2c1C(=O)c1c(O)c3c(c(O)c1C2=O)C[C@@](O)(C(=O)CO)C[C@@H]3O[C@H]1C[C@H](N)[C@H](O)[C@H](C)O1 [DOX, doxorubicin]
[4]
  Decrease of tumor size: effective only in sensitive tumors
[5]
  Maximum tolerated dose (MTD): 60-80 mg/m2

## Cc1c(CN2CCN(C(=O)[C@H](C)O)CC2)sc2c(N3CCOCC3)nc(-c3cnc(N)nc3)nc12 [GDC, GDC-0980]
[6]
  Solubility of free GDC: poor solubility
[1]
  Change of G0/G1 phase population: slight increase in the G0/G1 phase population
[3]; [7]
  pIC50: 6.12

## CCOC(=O)N1CCN(/[N+]([O-])=N/Oc2ccc([N+](=O)[O-])cc2[N+](=O)[O-])CC1 [JSK, JS-K]
[1]
  Change of G0/G1 phase population: decrease in the G0/G1 population
  Change of G2/M phase population: did not make significant changes in those fractions
  Change of S phase population: did not make significant changes in those fractions
[3]; HL-60 cells, 48 h incubation, read-out: IC50
  pIC50: 6.36

Reference: patent US20180214560A1, “HPMA-DRUG CONJUGATES FOR THE TREATMENT OF ACUTE MYELOID LEUKEMIA” (University of Utah Research Foundation, priority 2015, published 2018)
